Experimental data as given in patent publication US7652053B2, “Diaminocycloalkane MCH receptor antagonists” (Hoffmann-La Roche Inc., priority 2006, dated 2010).
Counter-ions that a name gives are not always drawn. Like-named read-outs stand apart in the source and are kept apart here.

Target: T1, recombinant human MCHR1 receptors (Homo sapiens, UniProt Q99705)
T1 construct: expressed in transfected cells
Assay: MCHR Filter Binding Assay (competition binding with [Phe13[125I]Tyr19]-MCH)
Protocol: Competition binding assay was conducted in MultiScreen […] glass fiber type B filter plates (96-well, Millipore). The MultiScreen plates were pretreated by incubation with 0.5% polyvinylpyrrolidone solution containing 1% BSA and 0.1% tween-20 for 12 hours at 4° C. and washed five times with ice-cold 10 mM Tris buffer, pH 7.5, followed by incubation with 200 µL of binding buffer (50 mM HEPES, 2.5 mM CaCl2, 0.05 mM BSA, 1 mM phenanthroline, 0.03 mM Triton X-100) for 5 min at room temperature and plates were drained before the binding reactions. The binding assay was performed by pre-incubating 2.8 µg of membranes from CHO-K1 cells stably expressing the recombinant human MCHR1 receptors, and various concentrations (final concentration 0.059 nM to 45 µM) of unlabeled MCH or antagonists in binding buffer for 15 min at room temperature. The competition reaction was started by adding final concentration (0.2 nM) [Phe^13[^125I]Tyr^19]-MCH (PerkinElmer). The final volume of the reaction was 90 µL per well. After 60 min incubation time at room temperature the reaction was stopped by rapid filtration over 96-well filter plates. Following termination of the binding reactions, the filters were washed with ice-cold binding buffer (4×200 µL), and were air dried for 30 min. Scintillation cocktail (60 µL) was added to each well and radioactivity bound to the plates was determined using a Micro-beta plate reader (Wallace/PerkinElmer). The inhibition potency of antagonist was expressed as IC50, the concentration of compound at which the binding of radio labeled MCH to MCHR1 was inhibited by 50%.

[1] = membranes from CHO-K1 cells stably expressing human MCHR1, 0.2 nM radiolabeled MCH, read-out: Activity in MCHR binding assays (IC50 class)
[2] = inhibition of binding of MCH to MCHR
[3] = inhibition of binding of MCH to MCHR, read-out: MCHR IC50

T1 sequence (Q99705 whole entry): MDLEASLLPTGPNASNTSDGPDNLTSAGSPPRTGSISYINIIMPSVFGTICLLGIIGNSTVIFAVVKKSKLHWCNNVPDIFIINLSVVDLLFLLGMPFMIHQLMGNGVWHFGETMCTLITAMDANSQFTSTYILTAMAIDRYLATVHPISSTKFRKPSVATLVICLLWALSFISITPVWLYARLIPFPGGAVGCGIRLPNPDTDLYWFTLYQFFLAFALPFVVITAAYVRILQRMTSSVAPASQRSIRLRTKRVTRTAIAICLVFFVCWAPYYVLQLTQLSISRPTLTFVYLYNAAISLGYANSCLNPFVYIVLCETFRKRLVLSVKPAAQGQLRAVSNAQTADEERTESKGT

Row | Compound | IC50 [1] [nM] | Ki [2] [nM] | IC50 [3] [nM]
1 | Cc1ccc2c(c1)nc(C)n2[C@@H]1CC[C@@H](NCC2Cc3ccc(Cl)cc3C2)C1 (relative stereo) [Example 3, trans-(5-Chloro-indan-2-ylmethyl)-[3-(2,5-dimethyl-benzoimidazol-1-yl)-cyclopentyl]-amine] | 100 to 1000 | – | –
2 | CC(C)(O)c1nc2cc(Cl)ccc2n1[C@H]1CC[C@@H](NCC2Cc3ccc(C(F)(F)F)cc3C2)CC1 (relative stereo) [Example 8, cis-2-(5-Chloro-1-{4-[(5-trifluoromethyl-indan-2-ylmethyl)-amino]-cyclohexyl}-1H-benzoimidazol-2-yl)-propan-2-ol] | 100 to 1000 | – | –
3 | Cc1ccc2c(c1)nc(C)n2[C@H]1CC[C@@H](NC2Cc3ccccc3C2)CC1 [Example 1, cis-4-(2,5-Dimethyl-benzoimidazol-1-yl)-cyclohexyl]-indan-2-yl-amine; hydrochloride] | 100 to 1000 | – | –
4 | Cc1ccc2c(c1)nc(C)n2[C@@H]1CC[C@@H](NC[C@H]2Cc3ccc(Br)cc3C2)C1 [Example 2, trans-(S)-(5-Bomo-indan-2-ylmethyl)-[3-(2,5-dimethyl-benzoimidazol-1-yl)-cyclopentyl]-amine] | 100 to 1000 | – | –
5 | Cc1ccc2c(c1)nc(C)n2[C@H]1CC[C@@H](NC[C@H]2Cc3ccc(Br)cc3C2)CC1 [Example 4, cis-(S)-(5-Bromo-indan-2-ylmethyl)-[4-(2,5-dimethyl-benzoimidazole-1-yl)-cyclohexyl]-amine hydrochloride] | 10 to 100 | – | –
6 | Cc1ccc2c(c1)nc(C)n2[C@@H]1CC[C@H](NC[C@H]2Cc3ccc(Br)cc3C2)C1 [Example 5, cis-(S)-(5-Bromo-indan-2-ylmethyl)-[3-(2,5-dimethyl-benzoimidazol-1-yl)-cyclopentyl]-amine] | 100 to 1000 | – | –
7 | Cc1ccc2c(c1)nc(C)n2[C@H]1CC[C@@H](NC2Cc3ccc(Cl)cc3C2)CC1 (stereo partly drawn) [Example 6, cis-(5-Chloro-indan-2-yl)-[4-(2,5-dimethyl-benzoimidazol-1-yl)-cyclohexyl]-amine; hydrochloride] | 10 to 100 | – | –
8 | CC(C)(O)c1nc2cc(Cl)ccc2n1[C@H]1CC[C@@H](NC[C@H]2Cc3ccc(Br)cc3C2)CC1 [Example 7, cis-(S)-2-(1-{4-[(5-Bromo-indan-2-ylmethyl)-amino]-cyclohexyl}-5-chloro-1H-benzoimidazol-2-yl)-propan-2-ol] | 10 to 100 | 19 | 24
9 | CC(C)(O)c1nc2cc(Cl)ccc2n1[C@H]1CC[C@@H](NCC2Cc3ccccc3C2)CC1 [Example 9, cis-2-(5-Chloro-1-{4-[(indan-2-ylmethyl)-amino]-cyclohexyl}-1H-benzoimidazol-2-yl)-propan-2-ol] | 10 to 100 | – | –
10 | CC(C)(O)c1nc2cc(Cl)ccc2n1[C@H]1CC[C@@H](NCC2Cc3ccc(Cl)cc3C2)CC1 (stereo partly drawn) [Example 10, cis-2-(5-Chloro-1-{4-[(5-chloro-indan-2-ylmethyl)-amino]-cyclohexyl}-1H-benzoimidazol-2-yl)-propan-2-ol] | 10 to 100 | – | –
11 | Cc1ccc2c(c1)nc(C)n2[C@H]1CC[C@@H](NCC2Cc3ccc(Cl)cc3C2)CC1 (stereo partly drawn) [Example 11, cis-(5-Chloro-indan-2-ylmethyl)-[4-(2,5-dimethyl-benzoimidazol-1-yl)-cyclohexyl]-amine] | 10 to 100 | – | –
12 | Cc1ccc2c(c1)nc(C)n2[C@H]1CC[C@@H](NCC2Cc3ccc(C(F)(F)F)cc3C2)CC1 (stereo partly drawn) [Example 12, cis-[4-(2,5-Dimethyl-benzoimidazol-1-yl)-cyclohexyl]-(5-trifluoromethyl-indan-2-ylmethyl)-amine] | 100 to 1000 | – | –
13 | Cc1ccc2c(c1)nc(C)n2[C@H]1CC[C@@H](NCC2Cc3ccccc3C2)CC1 [Example 13, cis-[4-(2,5-Dimethyl-benzoimidazol-1-yl)-cyclohexyl]-indan-2-ylmethyl-amine] | 100 to 1000 | – | –
14 | CC(C)(O)c1nc2cc(Cl)ccc2n1[C@H]1CC[C@@H](NC[C@H]2Cc3ccc(C#N)cc3C2)CC1 [Example 14, cis-(S)-2-({4-[5-Chloro-2-(1-hydroxy-1-methyl-ethyl)-benzoimidazol-1-yl]-cyclohexylamino}-methyl)-indan-5-carbonitrile] | < 10 | 1.8 | 2.2
15 | Cc1ccc2c(c1)nc(C)n2[C@H]1CC[C@@H](NC[C@H]2Cc3ccc(C#N)cc3C2)CC1 [Example 15, cis-(S)-2-{[4-(2,5-Dimethyl-benzoimidazol-1-yl)-cyclohexylamino]-methyl}-indan-5-carbonitrile] | 10 to 100 | – | –
16 | Cc1ccc2c(c1)nc(C(C)(C)O)n2[C@H]1CC[C@@H](NC[C@H]2Cc3ccc(C#N)cc3C2)CC1 [Example 16, cis-(S)-2-({4-[2-(1-Hydroxy-1-methyl-ethyl)-5-methyl-benzoimidazol-1-yl]-cyclohexylamino}-methyl)-indan-5-carbonitrile] | < 10 | – | –
17 | Cc1ccc2c(c1)nc(C(C)(C)O)n2[C@H]1CC[C@H](NC[C@H]2Cc3ccc(C#N)cc3C2)CC1 [Example 17, trans-(S)-2-({4-[2-(1-Hydroxy-1-methyl-ethyl)-5-methyl-benzoimidazol-1-yl]-cyclohexylamino}-methyl)-indan-5-carbonitrile] | 100 to 1000 | – | –
18 | Cc1ccc2c(c1)nc(C(C)(C)O)n2[C@H]1CC[C@@H](NCC2Cc3ccc(F)cc3C2)CC1 (stereo partly drawn) [Example 18, cis-2-(1-{4-[(5-Fluoro-indan-2-ylmethyl)-amino]-cyclohexyl}-5-methyl-1H-benzoimidazol-2-yl)-propan-2-ol] | 10 to 100 | – | –
19 | Cc1ccc2c(c1)nc(C(C)(C)O)n2[C@H]1CC[C@H](NCC2Cc3ccc(F)cc3C2)CC1 (stereo partly drawn) [Example 19, trans-2-(1-{4-[(5-Fluoro-indan-2-ylmethyl)-amino]-cyclohexyl}-5-methyl-1H-benzoimidazol-2-yl)-propan-2-ol] | 100 to 1000 | – | –
20 | Cc1ccc2c(c1)nc(C(C)(C)O)n2[C@H]1CC[C@@H](NCC2Cc3ccc(Cl)cc3C2)CC1 (stereo partly drawn) [Example 20, cis-2-(1-{4-[(5-Chloro-indan-2-ylmethyl)-amino]-cyclohexyl}-5-methyl-1H-benzoimidazol-2-yl)-propan-2-ol] | 10 to 100 | 21 | 26
21 | Cc1ccc2c(c1)nc(C(C)(C)O)n2[C@H]1CC[C@H](NCC2Cc3ccc(Cl)cc3C2)CC1 (stereo partly drawn) [Example 21, trans-2-(1-{4-[(5-Chloro-indan-2-ylmethyl)-amino]-cyclohexyl}-5-methyl-1H-benzoimidazol-2-yl)-propan-2-ol] | 100 to 1000 | – | –
22 | CC(C)(O)c1nc2cc(Cl)ccc2n1[C@H]1CC[C@@H](NC[C@@H]2Cc3ccc(C#N)cc3C2)CC1 [Example 22, cis-(R)-2-({4-[5-Chloro-2-(1-hydroxy-1-methyl-ethyl)-benzoimidazol-1H-yl]-cyclohexylamino}-methyl)-indan-5-carbonitrile] | < 10 | – | –
23 | CC(=O)N(C[C@H]1Cc2ccc(C#N)cc2C1)[C@H]1CC[C@@H](n2c(C(C)(C)O)nc3cc(Cl)ccc32)CC1 [Example 23, cis-(S)—N-{4-[5-Chloro-2-(1-hydroxy-1-methyl-ethyl)-benzoimidazol-1-yl]-cyclohexyl}-N-(5-cyano-indan-2-ylmethyl)-acetamide] | 100 to 1000 | 154 | 193
24 | CC(C)(O)c1nc2cc(Cl)ccc2n1[C@H]1CC[C@@H](NC[C@@H]2Cc3ccc(Br)cc3C2)CC1 [Example 24, cis-(R)-2-(1-{4-[(5-Bromo-indan-2-ylmethyl)-amino]-cyclohexyl}-5-chloro-1H-benzoimidazol-2-yl)-propan-2-ol] | 10 to 100 | – | –
25 | Cc1nc2cc(C#N)ccc2n1[C@H]1CC[C@@H](NCC2Cc3ccc(Cl)cc3C2)CC1 (stereo partly drawn) [Example 25, cis-1-{4-[(5-Chloro-indan-2-ylmethyl)-amino]-cyclohexyl}-2-methyl-1H-benzoimidazole-5-carbonitrile] | 10 to 100 | – | –
26 | Cc1nc2cc(F)ccc2n1[C@H]1CC[C@@H](NC[C@H]2Cc3ccc(C#N)cc3C2)CC1 [Example 26, cis-(S)-2-{[4-(5-Fluoro-2-methyl-benzoimidazol-1-yl)-cyclohexylamino]-methyl}-indan-5-carbonitrile] | < 10 | 2 | 3
